Type in all cases: in vivo
In assay [1] the test system is Poa annua (POAAN). In words: Herbicidal post-emergence action, section B (Table B7). The following applies: application rate 1280 g/ha, visual rating about 3 weeks after treatment vs untreated controls. As for the experimental part:
(§1) Seeds of mono- and dicotyledonous weed plants were placed in plastic pots in sandy loam soil (doubly sown with in each case one species of mono- or dicotyledonous weed plants per pot), covered with soil and cultivated in a greenhouse under controlled growth conditions. 2 to 3 weeks after sowing, the test plants were treated at the one-leaf stage. The compounds of the invention, formulated in the form of wettable powders (WP) or as emulsion concentrates (EC), were applied onto the green parts of the plants as aqueous suspension or emulsion with addition of 0.5% additive at a water application rate of 600 liters per hectare (converted). After the test plants had been kept in the greenhouse under optimum growth conditions for about 3 weeks, the activity of the preparations was rated visually in comparison to untreated controls. For example, 100% activity=the plants have died, 0% activity=like control plants.

In another assay the test system is Lolium rigidum (LOLRI). In words: Herbicidal pre-emergence action, section A (Table A5). The following applies: application rate 1280 g/ha, visual grading after ca. 3 weeks vs untreated controls; for pest or weed control at 1280 g/ha: Lolium rigidum, pre-emergence, 504 h, read-out: pre-emergence activity against LOLRI in %. The source says: (§2) Seeds of mono- and dicotyledonous weed plants were sown in plastic pots (double sowings with one species of mono- and one species of dicotyledonous weed plants per pot), in sandy loam, and covered with soil. The compounds according to the invention, formulated in the form of wettable powders (WP) or as emulsifiable concentrates (EC), were applied to the surface of the covering soil as aqueous suspension or emulsion, with the addition of 0.5% of an additive, at an application rate of 600 l of water per hectare (converted). Following treatment, the pots were placed in a greenhouse and kept under optimum growth conditions for the test plants. The visual grading of the damage to the test plants was carried out after ca. 3 weeks in comparison to untreated controls (herbicidal effect in percent (%): 100% effect=plants have died off, 0% effect=as control plants).

The test system of assay [2] is Poa annua (POAAN). In words: Herbicidal pre-emergence action, section A (Table A7). Particulars: visual grading after ca. 3 weeks vs untreated controls.
Description: as §2

The test system of assay [3] is Kochia scoparia (KCHSC). In words: Herbicidal pre-emergence action, section A (Table A4). Particulars: visual grading after ca. 3 weeks vs untreated controls.
Description: as §2

Assay [4] has as its system Echinochloa crus-galli (ECHCG). In words: Herbicidal pre-emergence action, section A (Table A3). Particulars: application rate 1280 g/ha, visual grading after ca. 3 weeks vs untreated controls; for pest or weed control at 1280 g/ha: Echinochloa crus-galli, pre-emergence, 504 h, read-out: pre-emergence activity against ECHCG in %.
Description: as §2

For assay [5], the system named is Veronica persica (VERPE). In words: Herbicidal pre-emergence action, section A (Table A10). The following applies: application rate 1280 g/ha.
Description: as §2

Assay [6] concerns Amaranthus retroflexus (AMARE). In words: Herbicidal pre-emergence action, section A (Table A11).
Description: as §2

The subject of the next assay is Setaria viridis (SETVI). In words: Herbicidal pre-emergence action, section A (Table A8).
Description: as §2

In the next assay the test system is Stellaria media (STEME). In words: Herbicidal pre-emergence action, section A (Table A9). The following applies: application rate 1280 g/ha; for pest or weed control at 1280 g/ha: Stellaria media, 504 h, read-out: pre-emergence activity against STEME in %.
Description: as §2

For assay [7], the system named is Digitaria sanguinalis (DIGSA). In words: Herbicidal pre-emergence action, section A (Table A12). Particulars: for pre-emergence activity against DIGSA in % / pest or weed control at 1280 g/ha: application rate 1280 g/ha.
Description: as §2

Assay [8] concerns Amaranthus retroflexus (AMARE). In words: Herbicidal post-emergence action, section B (Table B11). The following applies: application rate 1280 g/ha, visual rating about 3 weeks after treatment vs untreated controls. Here is the method:
as §1

In assay [9] the test system is Veronica persica (VERPE). In words: Herbicidal post-emergence action, section B (Table B10). Particulars: application rate 1280 g/ha; visual rating about 3 weeks after treatment vs untreated controls. Here is the method: as §1
The test system of assay [10] is Kochia scoparia (KCHSC). In words: Herbicidal post-emergence action, section B (Table B4). The following applies: Bassia scoparia, post-emergence, 504 h; application rate 1280 g/ha; visual rating about 3 weeks after treatment vs untreated controls; read-out: post-emergence activity against KCHSC in %. Here is the method: as §1
Assay [11] relates to Matricaria inodora (MATIN). In words: Herbicidal pre-emergence action, section A (Table A6). Particulars: Tripleurospermum inodorum, pre-emergence, 504 h; application rate 1280 g/ha; visual grading after ca. 3 weeks vs untreated controls; read-out: pre-emergence activity against MATIN in %.
Description: as §2

Where [12] appears, read: Bassia scoparia, pre-emergence, 504 h, application rate 1280 g/ha, read-out: pre-emergence activity against KCHSC in %.
[13] abbreviates: Amaranthus retroflexus, 504 h, application rate 1280 g/ha, read-out: pre-emergence activity against AMARE in %.
Where [14] appears, read: Digitaria sanguinalis, 504 h, read-out: pre-emergence activity against DIGSA in %.
Where [15] appears, read: Setaria viridis, 504 h, application rate 320 g/ha, read-out: pre-emergence activity against SETVI in %.

Consider `COCCOCCOCC(=O)N1CSc2cc(C)c(-c3cccc(F)c3F)nc21` [Example I-149], for which the “post-emergence activity against POAAN in %” value in the assay with Poa annua (POAAN) [1] worked out at 90%. For the same compound, the “pre-emergence activity against LOLRI in %” value with Lolium rigidum (LOLRI) was 90%. For the same compound, in the assay with Poa annua (POAAN) [2] (application rate 1280 g/ha), the “pre-emergence activity against POAAN in %” value is recorded as 100%. The “pre-emergence activity against KCHSC in %” value in the assay on Kochia scoparia (KCHSC) [3] (application rate 1280 g/ha) amounted to 90%. Moreover, the “pre-emergence activity against ECHCG in %” value in assay [4] is reported as 100%. In addition, the “pre-emergence activity against VERPE in %” value with Veronica persica (VERPE) [5] is 90%. In assay [6] (application rate 320 g/ha), the “pre-emergence activity against AMARE in %” value is listed as 90%. The “pre-emergence activity against SETVI in %” value in the assay on Setaria viridis (SETVI) (application rate 320 g/ha) came out at 100%. Further, the “pre-emergence activity against STEME in %” value with Stellaria media (STEME) is recorded as 90%. Besides, in assay [7], the “pre-emergence activity against DIGSA in %” value is reported as 100%.
On to `N#CCS(=O)(=O)N1CSc2cc(Br)c(-c3cccc(Cl)c3F)nc21` [Example I-131], for which the “post-emergence activity against AMARE in %” value in assay [8] was determined as 90%. Also, the “post-emergence activity against VERPE in %” value in the assay with Veronica persica (VERPE) [9] was 90%. For the same compound, the “pre-emergence activity against AMARE in %” value in assay [6] (application rate 1280 g/ha) was 90%. Also, the “pre-emergence activity against STEME in %” value in the assay on Stellaria media (STEME) came to 90%.
Consider `CCS(=O)(=O)N1CSc2cc(Br)c(-c3cccc(Cl)c3F)nc21` [Example I-132], for which, in assay [8], the “post-emergence activity against AMARE in %” value is recorded as 90%. In addition, the “post-emergence activity against VERPE in %” value in the assay with Veronica persica (VERPE) [9] is 90%. The “pre-emergence activity against VERPE in %” value in the assay with Veronica persica (VERPE) [5] came out at 90%.
With `CCS(=O)(=O)N1C[S+]([O-])c2cc(Br)c(-c3ccccc3Cl)nc21` (stereo not drawn) [Example I-134], the pest or weed control at 1280 g/ha came to 90% with Poa annua (POAAN) [1] (Poa annua, post-emergence, 504 h, read-out: post-emergence activity against POAAN in %); 100% in the assay with Poa annua (POAAN) [2] (Poa annua, pre-emergence, 504 h, application rate 1280 g/ha, read-out: pre-emergence activity against POAAN in %); 90% with Kochia scoparia (KCHSC) [3] (setting [12]); 100% in [4]; 90% in assay [6] (setting [13]); 100% with Setaria viridis (SETVI) (Setaria viridis, 504 h, application rate 1280 g/ha, read-out: pre-emergence activity against SETVI in %). Further, the pest or weed control at 1280 g/ha in the assay with Stellaria media (STEME) came to 90%; in assay [7] (setting [14]) it was 100%.
For `COc1ccccc1-c1nc2c(cc1C)[S+]([O-])CN2S(C)(=O)=O` (stereo not drawn) [Example I-101], the pest or weed control at 1280 g/ha came to 100% in the assay on Lolium rigidum (LOLRI); 90% with Kochia scoparia (KCHSC) [3] (setting [12]); 90% in [4]; 90% in [6] (setting [13]); 90% in the assay on Kochia scoparia (KCHSC) [10]; 90% in [7] (setting [14]). Besides, the pest or weed control at 320 g/ha in the assay with Setaria viridis (SETVI) (setting [15]) is 100%.
Take `Cc1cccc(-c2nc3c(cc2Br)SCN3C(=O)C2(C)CC(Cl)=NO2)c1C` (stereo not drawn) [Example I-140]: the “pre-emergence activity against POAAN in %” value in the assay with Poa annua (POAAN) [2] (application rate 1280 g/ha) was found to be 100%. For the same compound, in [6] (application rate 1280 g/ha), the “pre-emergence activity against AMARE in %” value worked out at 90%. In the assay with Stellaria media (STEME), the “pre-emergence activity against STEME in %” value came to 90%.
Consider `CCC(=O)N1C[S+]([O-])c2cc(C)c(-c3ccc(F)cc3F)nc21` (stereo not drawn) [Example I-053], for which the pest or weed control at 1280 g/ha with Lolium rigidum (LOLRI) turned out to be 100%; in assay [8] (Amaranthus retroflexus, post-emergence, 504 h, read-out: post-emergence activity against AMARE in %), 90%; in assay [4] it was 100%; with Veronica persica (VERPE) [5] (Veronica persica, 504 h, read-out: pre-emergence activity against VERPE in %) it was 90%; in assay [11], 90%; with Stellaria media (STEME) it was 90%. Moreover, the pest or weed control at 320 g/ha in the assay with Poa annua (POAAN) [2] (Poa annua, pre-emergence, 504 h, application rate 320 g/ha, read-out: pre-emergence activity against POAAN in %) was 100%; in the assay on Kochia scoparia (KCHSC) [3] (Bassia scoparia, pre-emergence, 504 h, application rate 320 g/ha, read-out: pre-emergence activity against KCHSC in %) it was 90%; in [6] (Amaranthus retroflexus, 504 h, application rate 320 g/ha, read-out: pre-emergence activity against AMARE in %), 90%; in the assay on Setaria viridis (SETVI) (setting [15]) it was 100%; in assay [7] (Digitaria sanguinalis, 504 h, application rate 320 g/ha, read-out: pre-emergence activity against DIGSA in %), 100%.
Turning to `CCc1ccccc1-c1nc2c(cc1Br)SCN2B(N)N` [Example I-080], the “post-emergence activity against AMARE in %” value in assay [8] is 90%. Besides, the “pre-emergence activity against DIGSA in %” value in [7] was 100%.

Values taken from patent US20240381872A1, “SUBSTITUTED 2,3-DIHYDRO[1,3]THIAZOLO[4,5-B]PYRIDINES, SALTS THEREOF AND THEIR USE AS HERBICIDALLY ACTIVE SUBSTANCES” (BAYER AKTIENGESELLSCHAFT, priority 2021, published 2024).
